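Briefly, cells in 96-well plates were exposed to five compound concentrations for 48 h, and endpoints were estimated by linear interpolation. Abbreviation: GI50, concentration required for 50% inhibition of growth. Definition used: TGI = concentration required for complete inhibition of growth.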
What was measured:
Experiment in all cases: NCI anticancer screen, dose series, 48 h
[1] = system: SF-268 CNS
[2] = system: MDA-MB-435
[3] = system: SF-295 CNS
[4] = system: RPMI-8226 leukemia
[5] = system: HL-60(TB) leukemia
[6] = system: U251 CNS
[7] = system: SK-MEL-2 melanoma
[8] = system: OVCAR-4 ovarian
[9] = system: HCT-15 colon
[10] = system: SR leukemia

Row | Compound | GI50 [1] [µM] | TGI [1] [µM] | GI50 [2] [µM] | TGI [2] [µM] | GI50 [3] [µM] | TGI [3] [µM] | GI50 [4] [µM] | TGI [4] [µM] | GI50 [5] [µM] | TGI [5] [µM] | GI50 [6] [µM] | TGI [6] [µM] | GI50 [7] [µM] | TGI [7] [µM] | GI50 [8] [µM] | TGI [8] [µM] | GI50 [9] [µM] | TGI [9] [µM] | TGI [10] [µM]
1 | Nc1nc(/C=C\c2ccc([N+](=O)[O-])s2)nc(N2CCN(c3ccccc3)CC2)n1 | 27.2 | 80 | 19.2 | 43.6 | 20 | 58.3 | 22.9 | 74 | 18.8 | 54.2 | 21.6 | 56 | 21.2 | 48.5 | 40.6 | > 100 | 14.6 | 28.3 | 
2 | CC(=O)O[C@@H]1C2CCC3C(CC[C@@]4(C)C3CC[C@@H]4C(C)N(C)C)[C@@]2(C)CC[C@@H]1NC(=O)C=C(C)C (some centres not stated) | 1.56 | 3.31 | 1.92 | 4.26 | 1.85 | 4.42 | 1.96 | 5.53 | 2.59 | 6.19 | 2.22 | 8.61 | 2.89 | 6.85 | 3.51 | 17.2 | 1.39 | 3.45 | 
3 | NNC(=O)C(=O)N/N=C(\CCCC(=O)Nc1ccc(Cl)cc1)CC(=O)c1ccc(F)cc1 |  | > 100 |  |  |  | > 100 |  | > 100 |  | > 100 |  | > 100 |  | > 100 |  | > 100 |  |  | 
4 | C/C(=N\N=C(N)N)C(CN1CCCCC1)C(c1ccccc1)c1c(O)c2ccccc2oc1=O (configuration not stated) |  | > 100 |  |  |  | > 100 |  | > 100 |  | > 100 |  |  |  | > 100 |  | > 100 |  | > 100 | > 100
5 | OC(CNc1ccnc2cc(Cl)ccc12)CNc1ccnc2cc(Cl)ccc12 |  |  | 1.67 | 3.1 | 1.82 | 3.56 | 3 | 11.1 | 1.82 | 3.79 |  |  |  |  | 1.64 | 3.34 | 17.2 | 44.6 | 
6 | CSc1ccc2c(cc1=O)[C@@H](NC(=O)c1cccc([N+](=O)[O-])c1)CCc1cc(O)c(O)c(O)c1-2 |  | > 100 |  |  |  | > 100 |  | > 100 |  | > 100 |  | 51.5 |  | > 100 |  | > 100 |  | > 100 | 
7 | CCOC(OC(C)=O)[C@@H]1C=C[C@H](C)N(c2ccc([N+](=O)[O-])cc2)O1 (some centres not stated) |  | 15.6 |  |  |  | 27.4 |  | 5.45 |  | 4.79 |  | 9 |  | 13.5 |  | 15.4 |  | 6.77 | 
8 | C=CCNC(=O)NCCCCC(NC(C)=O)C(=O)NCc1ccccc1 (configuration not stated) |  | > 100 |  |  |  | > 100 |  | > 100 |  | > 100 |  | > 100 |  | > 100 |  | > 100 |  | > 100 | 
9 | C=C(C)[C@H]1CC[C@@]2(C)C(C1)[C@H](C)CC[C@@H]2O (some centres not stated) |  | > 100 |  |  |  | > 100 |  | > 100 |  |  |  | > 100 |  | > 100 |  | > 100 |  | > 100 | > 100
10 | O=C(CSc1nc2c(n1Nc1ccccc1)-c1ccccc1SC2)Nc1nc(-c2ccc(Cl)cc2)cs1 | 10.8 | > 100 |  |  | 11.3 | 33.5 | > 100 | > 100 |  |  | 9.91 | 88.2 | 37.2 | > 100 |  |  | > 100 | > 100 | 

Source: PubChem BioAssay (NCI)
